Measured values: patent US10624871B2, “Bismuth(III) compounds and methods thereof” (priority 2016, dated 2020)

Assays:
K. pneumonia (NDM-1+) = assay: Microdilution MIC and MBC assay, FICI; type: cell-based; settings: for MBC of MER with Bi(III) compound / MIC of MER with Bi(III) compound: Bi(III) compound at 32 μg mL^−1, K. pneumonia (NDM-1+); for FIC Index: MER with Bi(III) compound, K. pneumonia (NDM-1+)
E. coli (VIM-2+) = assay: Microdilution MIC and MBC assay, FICI; type: cell-based
E. coli (NDM-1+) = assay: Microdilution MIC and MBC assay, checkerboard FICI; type: cell-based; settings: for MBC of MER with Bi(III) compound / MIC of MER with Bi(III) compound: Bi(III) compound at 32 μg mL^−1, E. coli (NDM-1+); for FIC Index: MER with Bi(III) compound, E. coli (NDM-1+)
E. coli (IMP-4+) = assay: Microdilution MIC and MBC assay, FICI; type: cell-based
C. freundii (NDM-1+) = assay: Microdilution MIC and MBC assay, FICI; type: cell-based
VIM-2 = VIM-2 (Escherichia coli, UniProt Q5U7L7); assay: IC50 enzyme inhibition assay, MER hydrolysis; type: biochemical; settings: Zn2-VIM-2, 1 h preincubation at 25° C., 100 μM MER
Source text: (§1) […]. The initial rate were extracted and calculated from each reaction curves.

NDM-1 = NDM-1 (Klebsiella pneumoniae, UniProt C7C422); assay: IC50 enzyme inhibition assay, MER hydrolysis; type: biochemical; settings: Zn2-NDM-1 50 nM, 1 h preincubation at 25° C., 100 μM MER
Source text: as §1

[1] = Solubility of the bismuth complexes (Table 1); settings: solvent named, or insoluble
[2] = Bi(III) compound at 32 μg mL−1, E. coli (VIM-2+)
[3] = Bi(III) compound at 32 μg mL−1, E. coli (IMP-4+)
[4] = Bi(III) compound at 32 μg mL^−1, C. feudii (NDM-1+)

NDM-1, sequence (C7C422 whole entry, looked up): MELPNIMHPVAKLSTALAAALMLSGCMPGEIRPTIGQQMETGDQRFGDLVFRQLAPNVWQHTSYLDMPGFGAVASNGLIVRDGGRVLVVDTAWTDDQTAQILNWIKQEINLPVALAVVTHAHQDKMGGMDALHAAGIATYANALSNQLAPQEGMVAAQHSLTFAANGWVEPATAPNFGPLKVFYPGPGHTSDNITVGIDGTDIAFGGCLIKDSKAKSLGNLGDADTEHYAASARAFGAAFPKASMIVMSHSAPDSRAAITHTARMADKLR

Row | Molecule | MBC of MER with Bi(III) compound (E. coli (NDM-1+)) | MIC of MER with Bi(III) compound (E. coli (NDM-1+)) | FIC Index (E. coli (NDM-1+)) | Solubility [1] | further results
1 | O=[N+]([O-])[O][Bi]([O][N+](=O)[O-])[O][N+](=O)[O-] [Bi(NO3)3] | 4 µg/mL | 2 µg/mL | 0.266 |  | MBC of MER with Bi(III) compound (K. pneumonia (NDM-1+)): 1 µg/mL; MIC of MER with Bi(III) compound (K. pneumonia (NDM-1+)): 1 µg/mL; FIC Index (K. pneumonia (NDM-1+)): 0.125; MBC of MER with Bi(III) compound (E. coli (VIM-2+); [2]): 2 µg/mL; MIC of MER with Bi(III) compound (E. coli (VIM-2+); [2]): 1 µg/mL; FIC Index (E. coli (VIM-2+); MER with Bi(III) compound, E. coli (VIM-2+)): 0.063; MBC of MER with Bi(III) compound (E. coli (IMP-4+); [3]): 8 µg/mL; MIC of MER with Bi(III) compound (E. coli (IMP-4+); [3]): 4 µg/mL; FIC Index (E. coli (IMP-4+); MER with Bi(III) compound, E. coli (IMP-4+)): 0.313; MBC of MER with Bi(III) compound (C. freundii (NDM-1+); [4]): 4 µg/mL; MIC of MER with Bi(III) compound (C. freundii (NDM-1+); [4]): 2 µg/mL; FIC Index (C. freundii (NDM-1+); MER with Bi(III) compound, C. freundii (NDM-1+)): 0.375; IC50 (VIM-2): 2.45 ± 0.63 µM; IC50 (NDM-1): 1.89 ± 0.23 µM
2 | C1=CC2=C(c3ccccc3)c3ccc4[n]3[Bi+][n]3c(ccc3=C(c3ccccc3)C3=NC(=C4c4ccccc4)C=C3)=C(c3ccccc3)C1=N2 [Complex 1] | 8 µg/mL | 4 µg/mL | 0.266 |  | MBC of MER with Bi(III) compound (K. pneumonia (NDM-1+)): 16 µg/mL; MIC of MER with Bi(III) compound (K. pneumonia (NDM-1+)): 4 µg/mL; FIC Index (K. pneumonia (NDM-1+)): 0.375
3 | O=C(O)c1ccccc1[S-].O=C([O-])c1ccccc1[S-].[Bi+3] [Complex 7] | 2 µg/mL | 1 µg/mL | 0.250 | DMSO | 
4 | O.O.O=C([O-])CN(CC(=O)[O-])CC(=O)[O-].[Bi+3] [Complex 11] | 8 µg/mL | 4 µg/mL |  |  | 
5 | [Bi+3].[O-]c1c([O-])c(Br)c(Br)c(Br)c1Br.[O-]c1c([O-])c(Br)c(Br)c(Br)c1Br [Complex 13] | 2 µg/mL | 1 µg/mL | 0.250 | DMSO | 
6 | O=[N+]([O-])[O-].O=[N+]([O-])[O-].[Bi+3].c1ccc(-c2ccccn2)nc1.c1ccc(-c2ccccn2)nc1 [Complex 16] | 8 µg/mL | 2 µg/mL |  |  | 
7 | NCC(=O)[O-].NCC(=O)[O-].NCC(=O)[O-].[Bi+3] [Complex 18] | 16 µg/mL | 8 µg/mL |  |  | 
8 | CNC(=C[N+](=O)[O-])NCCSCc1ccc(CN(C)C)o1.O=C([O-])CC(O)(CC(=O)[O-])C(=O)[O-].[Bi+3] [RBC, ranitidine bismuth citrate] | 4 µg/mL | 2 µg/mL |  |  | 
9 | bismuth subgallate [Complex 14] | 8 µg/mL | 4 µg/mL | 0.375 | Insoluble | 
